Experimental data as given in US20180256623A1, “COMPOSITIONS AND METHOD FOR REGULATING ADIPOSE TISSUE LIPOLYSIS, INSULIN-RESISTANCE, AND HYPERGLYCEMIA” (University of Virginia Patent Foundation, priority 2015, published 2018).

Columns and labels:
[1] = tested on: mice; assay: Rodent hemorrhage and trauma (surgery) model; assay type: in vivo
Excerpt: The acute changes in blood glucose that occur in a T1DM model were invesitaged. Streptozotocin (STZ)-treated mice were subjected to a hemorrhage protocol to mimic surgical induction of the neuroendocrine stress response in humans (FIG. 1). Adipose tissue lipolysis was controlled via the addition of the small molecule inhibitor Atglistatin. The extent of glycemic excursions and ketogenesis was followed.
Separate rodent models of diabetes were employed to investigate the unique co-morbidities associated with T1DM. For the T1DM model, C57BL/6J mice were subjected to low dose injection of streptozotocin (50 mg/kg) at 6-8 weeks of age (see the website for the Diabetic Complications Consortium).
The protocol for modeling surgery-induced stress has been adapted from several sources and is available to an art worker. Although few human patients undergo extensive hemorrhage during elective surgeries, this rodent protocol is a consistent and reproducible experimental model for surgical stress in humans. Briefly, on the day of the surgery 10-12 week old male mice were fasted for six hours prior to surgery and pre-treated with or without lmg/kg body weight of Atglistatin at four hours prior to surgery to prevent adipose tissue lipolysis. Mice were then anesthetized by continuous inhalation of isoflurane and subjected to a 2-cm ventral midline laparotomy. The abdomen will then be sutured, a catheter was placed in the right femoral artery and mice were hemorrhaged from the left femoral artery to a mean arterial pressure (MAP) of 35-40 mm Hg (T0′). Blood glucose and ketone levels were monitored during the surgery. The mice were followed until 30′ post-hemorrhage and were maintained continuously under anesthesia. At the termination of the experiment, blood was collected to measure serum catecholamines, insulin, cytokines, ketones and glycerol levels, among other possible metabolic parameters.
Rodent hemorrhage and trauma model—To activate the adaptive stress response and emulate the acute hyperglycemia and insulin resistance that develops after surgery, trauma and hemorrhage mice as previously described will be used. Briefly, 10-12 week old male mice are fasted for 4-6 hours prior to surgery and 4 hours before surgery, Atglistatin (1 mg/kg) or vehicle will be injected intraperitoneally. Mice are anesthetized by continuous inhalation of 1.5% isoflurane and 98.5% 02 throughout all procedures. After the mice are shaved, surgery will begin with a 2-cm ventral midline laparotomy. The abdomen is then sutured and the wounds bathed with 1% lidocaine to reduce pain. A catheter is placed in the right femoral artery for monitoring mean arterial pressure (MAP). To replicate the blood loss during a surgery, mice are hemorrhaged from the left femoral artery to an MAP of 35-40 mmHg over a 10-minute period. Once the MAP reaches 35-40 mmHg, the […]. […] Control mice are subjected to trauma alone. Mice are subjected to anesthesia, laparotomy, and catheterization. […] Blood glucose levels are monitored during the surgery.

[2] = molecular target: T1, hormone-sensitive lipase (Homo sapiens, UniProt Q05469); conditions: cited from earlier work
T1 sequence (Q05469 1-1076): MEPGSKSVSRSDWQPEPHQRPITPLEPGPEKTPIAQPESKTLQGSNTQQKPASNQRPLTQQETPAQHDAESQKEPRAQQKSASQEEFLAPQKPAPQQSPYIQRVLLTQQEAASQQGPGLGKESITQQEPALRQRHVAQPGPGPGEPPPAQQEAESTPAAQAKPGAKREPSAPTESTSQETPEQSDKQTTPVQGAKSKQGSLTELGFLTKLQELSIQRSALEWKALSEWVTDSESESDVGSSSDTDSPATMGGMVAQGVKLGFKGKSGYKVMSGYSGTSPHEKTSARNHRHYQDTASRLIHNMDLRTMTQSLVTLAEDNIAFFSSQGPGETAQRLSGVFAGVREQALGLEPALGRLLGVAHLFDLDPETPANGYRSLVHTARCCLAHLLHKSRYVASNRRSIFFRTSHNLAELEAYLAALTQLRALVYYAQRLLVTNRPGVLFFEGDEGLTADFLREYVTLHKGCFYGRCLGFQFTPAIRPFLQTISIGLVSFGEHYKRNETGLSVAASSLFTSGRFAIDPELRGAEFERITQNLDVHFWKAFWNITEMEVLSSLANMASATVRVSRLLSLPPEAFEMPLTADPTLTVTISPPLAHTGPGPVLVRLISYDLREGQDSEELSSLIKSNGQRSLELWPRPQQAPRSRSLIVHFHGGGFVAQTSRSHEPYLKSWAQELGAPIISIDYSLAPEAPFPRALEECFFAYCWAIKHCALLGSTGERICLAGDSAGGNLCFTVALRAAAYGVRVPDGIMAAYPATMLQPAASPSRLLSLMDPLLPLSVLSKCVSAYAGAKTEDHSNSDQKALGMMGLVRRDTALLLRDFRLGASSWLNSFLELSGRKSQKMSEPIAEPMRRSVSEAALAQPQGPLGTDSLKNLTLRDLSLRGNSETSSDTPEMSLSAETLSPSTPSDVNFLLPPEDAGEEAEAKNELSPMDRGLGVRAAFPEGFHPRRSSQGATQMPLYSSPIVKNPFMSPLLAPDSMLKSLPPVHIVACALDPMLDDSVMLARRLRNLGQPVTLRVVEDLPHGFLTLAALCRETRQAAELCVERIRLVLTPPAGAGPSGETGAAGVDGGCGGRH

[3] = molecular target: T2, pancreatic lipase (Homo sapiens, UniProt P16233); conditions: cited from earlier work
T2 sequence (P16233 17-465): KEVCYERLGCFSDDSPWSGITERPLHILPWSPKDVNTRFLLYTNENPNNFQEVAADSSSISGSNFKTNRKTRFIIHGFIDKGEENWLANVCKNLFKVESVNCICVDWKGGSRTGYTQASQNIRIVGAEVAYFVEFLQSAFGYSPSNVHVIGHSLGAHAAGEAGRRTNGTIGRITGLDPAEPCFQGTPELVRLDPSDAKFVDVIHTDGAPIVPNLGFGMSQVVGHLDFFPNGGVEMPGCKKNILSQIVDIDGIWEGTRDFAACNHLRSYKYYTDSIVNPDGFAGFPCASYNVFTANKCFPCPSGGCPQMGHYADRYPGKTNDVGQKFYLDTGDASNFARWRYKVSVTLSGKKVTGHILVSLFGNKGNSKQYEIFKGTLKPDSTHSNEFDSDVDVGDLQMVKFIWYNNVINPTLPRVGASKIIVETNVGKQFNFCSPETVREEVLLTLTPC

[4] = tested on: lipolysis by ATGL; conditions: in vitro; cited from earlier work
[5] = tested on: white adipose tissue organ cultures; conditions: cited from earlier work

Compound: CN(C)C(=O)Nc1cccc(-c2ccc(N(C)C)cc2)c1 [Atglistatin, N′-[4′-(dimethylamino) [1,1′-biphenyl]-3-yl]-N,N-dimethyl-urea]
- adipose tissue lipolysis as assessed by serum glycerol levels ([1]; control mice, pre-treated with lmg/kg body weight four hours prior to surgery, FIG. 2B): attenuating adipose tissue lipolysis
- circulating glycerol (lipolysis) ([1]; mice, Atglistatin 1 mg/kg intraperitoneally 4 hours before surgery): reduction in circulating glycerol
- hemorrhage-induced hyperglycemia ([1]; mice, Atglistatin 1 mg/kg intraperitoneally 4 hours before surgery, FIG. 3A): effective in preventing hemorrhage-induced hyperglycemia
- insulin resistance in adipose tissue and skeletal muscle ([1]; mice, Atglistatin 1 mg/kg intraperitoneally 4 hours before surgery, FIG. 3B): attenuation of insulin resistance in adipose tissue and skeletal muscle
- stress-induced lipolysis ([1]; pharmacological inhibition of ATGL): largely blocks stress-induced lipolysis
- inhibition of hormone-sensitive lipase [2]: does not inhibit
- inhibition of pancreatic lipase [3]: does not inhibit
- lipolysis by ATGL (fatty acid mobilization) [4]: blocks lipolysis
- lipolysis by ATGL (fatty acid mobilization) [5]: blocks lipolysis
